In article PMC7912796, “Design, Synthesis, Anticancer Activity, and Solid Lipid Nanoparticle Formulation of Indole- and Benzimidazole-Based Compounds as Pro-Apoptotic Agents Targeting Bcl-2 Protein” (Pharmaceuticals, 2021):

Assays:
[1] = tested on: MDA-MB-231/breast cancer cells; assay: MTT-cell proliferation assay; assay type: cell-based, human; settings: 48 h drug exposure, mean of three experiments ± SEM
Source text: (§1) The potential anti-cancer activity of all fourteen final synthesized compounds was investigated through MTT cytotoxic assay against two different human solid cancerous cell lines; A549/lung and MDA-MB-231/breast adenocarcinoma. The adopted cell-proliferation assay assessed % cell viability in relation to the reducing activity of cellular NADPH-dependent cellular oxidoreductases on tetrazolium dye, MTT [2,5-diphenyl-3-(4,5-dimethylthiazol-2-yl)tetrazolium bromide salt], for furnishing an easily quantified insoluble chromogenic formazan. For each drug concentration, 0.1, 1, 10, and 100 μM, the % cell-viability was estimated relative to negative control following a complete 48 h of drug treatment. Both 5-fluorouracil (5-FU) and doxorubicin (DOX) were set as positive index comparators. Moreover, the safety profile of the synthesized compounds was further investigated by examining their in-vitro cytotoxicity on non-cancerous cell line; MDCK/kidney cells.
(§2) Evaluating the cytotoxicity of tested compounds on two cancer cell lines (A549/lung and MDA-MB-231/breast adenocarcinoma) and non-cancerous (MDCK/kidney cells) was performed while adopting the formerly described method with small alterations. Cancer cell lines were propagated within Dulbecco’s Modified Eagle Medium-High Glucose (Cat.#: P0103; DMEM_High Glucose with Na.Pyruvate and stable Glutamine, Biowest^TM, Nuaillé, France), while MDA-MB-231 cells were propagated within RPMI-1640 L-Glutamine medium (Cat.#:12-604F; Lonza-Verviers SPRL^TM, Verviers, Belgium). The culturing media were supplemented via 1% antibiotic-antimycotic 100X (Cat.#: L0010; Biowest^TM, Nuaillé, France) and 10% fetal bovine serum (FBS) (Cat.#: EU-000-H; Seralab^TM, West Sussex, UK). Cells were seeded as triplicates within 96-well plate, at 1 × 10^4 cells per well density, after being counted and viability checked using the trypan blue staining solution (Cat.# ab233465; Abcam^TM, Cambridge, MA, USA). Seeded cells were permitted to adhere for 24 h under 5% CO2 and at 37 °C incubating conditions. The assigned compounds were dissolved in 500 µL DMSO affording the stock solution (100 mM) being ready for more diluting within the whole medium to obtain the compound’s final concentrations; 0.1, 1, 10, 100 µM for cell treatments. […] Following 24 h compound-cell treatment, the medium was substituted by fresh one and cells were permitted to develop for 48 h. At four hours prior the end of incubation, 10 μL MTT Sigma-Aldrich^TM (5 mg/mL in PBS 1X without magnesium and calcium; Cat.# 17-516F, Lonza-Verviers^TM, Basel, Switzerland) were added to all wells. Following the complete 48 h incubation, 100 μL DMSO was all added to all wells where they were subsequently centrifuged at 4000 rpm for 5 min allowing the formazan crystals of formazan to precipitate. Color was established and intensities were recorded at 490 nm using Synergy-Neo2® Hybrid MultiMode Plate Reader (BioTek^TM, Winooski, VT, USA), while subtracting the multi-well plates background absorbance at 690 nm. Percentage cell viability was estimated using the subsequent formula: % cell-viability = (average absorbance of treated wells/average absorbance of controls) × 100.

[2] = tested on: A549/lung adenocarcinoma cells; assay: MTT-cell proliferation assay; assay type: cell-based, human; settings: Homo sapiens, A549, 48 h drug exposure, mean of three experiments ± SEM
Source text: as §1, §2

[3] = tested on: MDA-MB-231/breast cancer cell line; assay: Apoptosis rate analysis, Annexin-V/FACS; assay type: cell-based, human; settings: 13 µM, 48 h
Source text: Using flow cytometry, apoptosis rate analysis was proceeded through staining the cell surface-translocating phosphatidylserine with Annexin-V fluorescent conjugate, the calcium-dependent phospholipid binding protein [32]. However, cell cycle analysis was achieved using propidium iodine fluorescent dye to stoichiometrically stain cell DNA contents allowing quantitation and identification of all cell phase rates; G0-G1, S, G2/M, and pre-G1 [33, 34]. […] For identifying the mode of cell death promoted by 8b within MDA-MB-231/breast cancer cells, apoptosis rate analysis was performed following 48 h exposure time. […] Moreover, the average proportion of Annexin-V stained positive cells (total apoptotic cells) elevated from 1.72% within untreated cells to 18.93% in treated ones (p < 0.001). […] The above provided findings are supported by the previous cell cycle analysis confirming the potentiality of 8b as promising anticancer agent.
Apoptotic assay and cell cycle analysis were proceeded according to previous literatures. In brief, cells were planted in 1.0 × 10^6 cells/flask density for 24 h. Subsequently, 8b was added at its IC50 value and incubated for 48 h. Following incubation, MDA-MB-231 cells were trypsinized, harvested, and fixed according to information cited within Annexin® V-FITC Detection Kit (Cat.#: K101-25, BioVision^TM, Milpitas, CA, USA), for quantifying cell’s DNA contents being treated with 8b relative to control sample using propidium iodide stain (Cat.#: ab139418; Abcam^TM, Cambridge, MA, USA). Finally, flow cytometry analysis was done using BD-FACSCalibur® cell analyzer platform (Becton Dickinson-Biosciences-SG^TM, Singapore, Thailand) to estimate which cell cycle phase, the treated cells would be arrested in, as well as computing the percentage of apoptotic cells.

[4] = tested on: MDCK/kidney non-cancerous cells; assay: MTT-cell proliferation assay on non-cancerous cell line; assay type: cell-based; settings: 48 h drug exposure, mean ± SEM
Source text: as §1, §2

[5] = tested on: class-III β-tubulin; assay: ELISA protein level; assay type: cell-based, human; settings: 48 h
Description: Dissection of the compound’s proapoptotic activity was proceeded through gene expression analysis for key genes, controlling apoptosis pathway, as well as protein level determination. Following 8b treatment for 48 h, alterations within MDA-MB-231/breast cancer cell expression of Bcl-2, Bax, caspase-3, -8, and -9 genes, as well as cytochrome c and class-III β-tubulin proteins levels were determined using real-time polymerase chain reaction (RT-PCR) or ELISA technique, respectively. Typically, Bcl-2, Bax, caspases, and cytochrome c proteins contributes within the regulation of apoptotic signaling. Acting as apoptotic activator (Bax) or inhibitor (Bcl-2), the Bcl-2 family proteins play their significant role in apoptosis. The caspases family are cysteine proteases being classified as either executioners; caspase-3, -6, or -7 or initiators; caspase-8 and -9 [36]. Regrading caspase-8, its activation is proceeded through extrinsic death-receptor dependent apoptotic pathway, while, caspase-9 activation is within the event of intrinsic mitochondrial cytochrome c leakage. Additionally, participation of activated caspase-3 is to be essential for caspase-8 activation. […]

IC50 [1]: 12.7 ± 2.48 µM
IC50 ([1]; Homo sapiens, MDA-MB-231, 48 h): ~13 µM
IC50 [2]: 23.1 ± 1.45 µM
SMILES: CCCc1ccc(-c2nn(-c3ccccc3)cc2C=NNC(=O)c2cc3ccccc3[nH]2)cc1 [Compound 8b, N′-((1-phenyl-3-(4-propylphenyl)-1H-pyrazol-4-yl)methylene)-1H-indole-2-carbohydrazide]
influence on necrosis [3]: no influence on the necrosis
early apoptotic cell population (LR quadrant) ([3]; quadrant assignment assumed): 5.09%
late apoptotic cell population (UR quadrant) ([3]; quadrant assignment assumed): 12.02%
necrotic cell population (UL quadrant) ([3]; quadrant assignment assumed): 1.82%
Annexin-V stained positive cells (total apoptotic cells) ([3]; untreated 1.72%): 18.93%
IC50 [4]: 92.75 ± 0.43 µM
IC50 ([4]; Canis lupus familiaris, MDCK, 48 h): 92 µM
class-III β-tubulin level ([5]; 13 μM, MDA-MB-231, control 0.73 ng/mL): 0.23 ng/mL
inhibition at 13 µM ([5]; Homo sapiens, MDA-MB-231, vs control): 68.4%
